Data from patent US8748459B2, “Pyridinoylpiperidines as 5-HT1F agonists” (Eli Lilly and Company, priority 2002, dated 2014).
pEC50: −log10 of the molar value.

System: rabbit saphenous vein
Assay: rabbit saphenous vein contraction
Procedure: Representative compounds of the present invention were tested in a rabbit saphenous vein contraction assay to measure their ability to mediate vasoconstriction. […] The tips of two 30-gauge stainless steel hypodermic needles bent into an L-shape were slipped into the polyetylene tubing. Vessels were gently pushed from the cannula onto the needles. The needles were then separated so that the lower one was attached with thread to a stationary glass rod and the upper one was tied with thread to the transducer. […] An initial optimum resting force of 1 gm was applied to the saphenous vein. Isometric contractions were recorded as changes in grams of force on a Beckman Dynograph with Statham UC-3 transducers and microscale accessory attachments. Tissues were allowed to equilibrate 1 to 2 hours before exposure to drugs. Cumulative agonist concentration-response curves were generated in tissues and no tissue was used to generate more than two agonist concentration-response curves. […] This vasoconstriction assay measures two important parameters, saphenous vein contraction (EC50) and maximal contraction as a % maximal KCl response (%max KCl).

- corrected vasoconstriction EC50 (EC50 divided by %max KCl): 10.3 nM
- pEC50 (Oryctolagus cuniculus): 6.18
Structure (SMILES): CNS(=O)(=O)Cc1ccc2[nH]cc(CCN(C)C)c2c1 [sumatriptan]
